According to patent publication US7235267B1, “Brain cell or nerve cell-protecting agents comprising medicinal ginseng” (priority 1999, dated 2007):

Columns and labels:
[1] = intracerebroventricular administration; cited from earlier work
[2] = system: SH-SP rats with MCA permanent occlusion; assay: Cerebral infarct lesion and brain edema after ginsenoside Rb1 (intravenous or intracerebroventricular); type: in vivo, rat; conditions: intravenous 6 μg/day for 28 days after MCA permanent occlusion
Method: Male SH-SP rats, at the age of 12-13 weeks, were used. Animals were bred in a room furnished with 12 hours light and dark cycles and water and feeds were supplied ad libitum. The cortical branch of the left middle cerebral artery (MCA) of SH-SP rats were coagulated and cut under inhalation anesthesia. Immediately after MCA permanent occlusion, ginsenoside Rb1 dissolved in physiological saline was infused once intravenously (6 μg or 60 μg), subsequently intravenously infused continuously for 28 days by using an Alza osmotic minipump (6 μg/day or 60 μg/day).
At 32 days after MCA permanent occlusion, the SH-SP rats were anesthetized with chloral hydrate, and they were perfused and fixed transcardially with 0.1 mole phosphate buffer containing 4% paraformaldehyde. The brains were dissected out and cerebrocortical infarct lesions were photographed.
In Japanese Patent Application No. Hei 10-365560, PCT/JP99/02550 (Brain cell or nerve cell-protective agents comprising ginsenoside Rb1), Japanese Patent Application No. Hei 11-340850, PCT/JP99/06804 (Cerebrovascular regeneration/reconstruction promoters and nerve tissue secondary degeneration inhibitors comprising ginsenoside Rb1), the present inventors (Sakanaka and Tanaka) measured areas of the left cerebral hemispheres and the left cerebrocortical infarct lesions on the photographs by using an image analyzer. […]

[3] = Cerebral blood flow, brain temperature, blood pressure; conditions: intravenous infusion 60 μg/day
[4] = system: Wistar rats with spinal cord injury; assay: Spinal cord injury model (20 g compression on lower thoracic cord for 20 minutes); type: in vivo, rat
From the text: The present inventors have investigated the effects of repetitive or continuous intravenous administration of ginsenoside Rb1 using rats with spinal cord injury and the effects were compared with those of repetitive or continuous intravenous administration of a crude saponin fraction of medicinal ginseng. If pressure is loaded on certain spinal segments such as the lower thoracic cord, not only nerve cells (neurons) in the gray matter of the same region but also fiber tracts or pathways in the white matter of the same region are damaged. The damages to the fiber tracts or pathways of the white matter are further developed to the distal portions (caudal portions) as well as causing the secondary degeneration of the origins of the fiber tract or pathways, namely the upper nerve cell bodies (i.e. origins) which project fibers (nerve processes) to the fiber tracts or pathways. As a result, the damages to the fiber tracts or pathways of the white matter in the lower thoracic cord, which received compression loading, induce the secondary degeneration of the origins (nerve cell bodies) sending fibers (also termed nerve processes or axons) to the fiber tracts or pathways as well as the secondary degeneration of fiber tracts located distal to the lower thoracic cord (i.e. lumbar cord and sacral cord) to cause paraplegia of both limbs. Further, since the innervation from the brain regions proximal to the lumbar cord and sacral cord is cut off due to damage to the lower thoracic cord, the secondary degeneration of nerve cells in the gray matters of the lumbar cord and sacral cord is further induced, as a result, paraplegia of the limbs can not be recovered. For that model of the spinal cord injury, the present inventors have used male Wistar rats (body weight about 300 g) loaded with 20 g of compression on the lower thoracic cord for 20 minutes.
Under inhalation anesthesia by a mixture of nitrous oxide and halothane, the rats were loaded with 20 g of compression on the lower thoracic cord for 20 minutes. After more than 30 minutes passed, ginsenoside Rb1 dissolved in physiological saline was injected once into the left femoral vein (12 μg or 60 μg), thereafter continuous or repetitive intravenous administration of ginsenoside Rb1 was performed for 7 days by using an Alza osmotic minipump (12 μg/day or 60 μ/day). Control animals and sham-operated animals were administered with the same amount of physiological saline (vehicle) alone. The open field locomotor scores [Basso, Bettie and Bresnakan (BBB) scores] were measured in each animal before loading spinal cord injury, on the day of spinal cord injury and from 1st day to 7th day after the spinal cord injury for use as an index of motor functions (Basso D. M. et al., J. Neurotrauma, 13, 343-359, 1996). BBB scores of the sham-operated rats (normal rats) were 20-21.
Under inhalation anesthesia by a mixture of nitrous oxide and halothane, the rats were loaded with 20 g of compression on the lower thoracic cord for 20 minutes. More than 30 minutes later, the crude saponin fraction dissolved in physiological saline was infused once into the left femoral vein (870 μg), thereafter continuous intravenous administration of the crude saponin fraction was performed for 7 days by using an Alza osmotic minipump (870 μg/day). Control animals with spinal cord injuries were administered with the same amount of physiological saline (vehicle) alone. […] These figures are photographs in place of drawings.
Under inhalation anesthesia by a mixture of nitrous oxide and halothane, wistar rats (body weight about 300 g) were loaded with 20 g of compression on the lower thoracic cord for 20 minutes. After they were awakened from anesthesia, the rats with paraplegia in both hindlimbs were allowed to stay for 1 hour and 40 minutes in the cage. […]

Compound: CC(C)=CCC[C@](C)(O[C@@H]1O[C@H](CO[C@@H]2O[C@H](CO)[C@@H](O)[C@H](O)[C@H]2O)[C@@H](O)[C@H](O)[C@H]1O)[C@H]1CC[C@]2(C)[C@@H]1[C@H](O)C[C@@H]1[C@@]3(C)CC[C@H](O[C@@H]4O[C@H](CO)[C@@H](O)[C@H](O)[C@H]4O[C@@H]4O[C@H](CO)[C@@H](O)[C@H](O)[C@H]4O)C(C)(C)[C@@H]3CC[C@]12C [ginsenoside Rb1]
- brain temperature, cerebral blood flow or blood pressure [1]: no effects
- difference in size between left and right cerebral hemisphere (brain edema) [2]: no difference in size
- cerebral infarct lesions (photographs at 32 days) ([2]; all 8 cases): obviously reduced
- cerebral blood flow [3]: does not affect
- healing of the operative dorsal wounds / ill effects ([4]; compared with rats administered with physiological saline): no such ill effects
- motor abilities (BBB scores) at the 7th day after spinal cord injury ([4]; ginsenoside Rb1 intravenous 12 μg/day and 60 μg/day): significantly ameliorated in a dose-dependent manner
- bedsore (decubitus) ([4]; ginsenoside Rb1 intravenous 60 μg/day starting 2 hours after spinal cord injury): hardly observed
- paraplegia of both hindlimbs ([4]; ginsenoside Rb1 intravenous 60 μg/day starting 2 hours after spinal cord injury, from 3-4 days after onset): gradually ameliorated
- paraplegia of both hindlimbs ([4]; ginsenoside Rb1 intravenous 60 μg/day starting more than 30 minutes after compression, 1-2 days later): significantly ameliorated
